Assay results taken from patent publication US8377489B2, “Banana treatments” (Rohm and Haas Company, priority 2008, dated 2013).

Tested on: Banana fruit
Assay: Ripening of bananas after 1-MCP dip of varied duration and ethylene exposure (Comparative Example 1)
Type: in vivo, Musa
Conditions: 20 microgram 1-MCP per liter with 0.6 ml/l NuFilm 17; for peel colour after 12 days: 12 days after exposure to ethylene
Source text: The following Examples, the color of banana peels is rated according to a seven stage rating scale, published by Chiquita Brands International, Inc. (http://www.chiquita.com/chiquita/Discover/cbripen.asp): stage 1 (dark green); stage 2 (all light green); stage 3 (more green than yellow); stage 4 (more yellow than green); stage 5 (green tips and necks); stage 6 (all yellow; maybe light green necks, no green tips); stage 7 (yellow flecked with brown). Consumers generally prefer to eat bananas in stage 5 or stage 6.
Banana fruit with an age of 12 weeks, grown and treated in Costa Rica. The bananas were dipped (not sprayed). The solution of every 1-MCP treatment included 0.6 ml/l NuFilm 17® 96% (elastomer-forming additive, Miller Chemical and Fertilizer Co.). Control sample had no dip. Other samples were dipped in water solution in which powdered encapsulation complex of 1-MCP in alpha-cyclodextrin was added to water to give concentration of 20 microgram 1-MCP per liter. Bananas were dipped for zero time (in and out), 5 minutes, or 20 minutes.
After 1-MCP treatment, fruit were allowed to dry on racks after treatments before being repacked in the boxes. The boxes were stored at 14° C. for 7 days. The boxes were conditioned at 20-21° C. for 6 hours before being treated with a continuous stream of 100 microliter per liter ethylene in a treatment chamber at 20° C. by 24 hours. After ethylene treatment the boxes were kept at ambient conditions (20° C. and 95% RH). Bananas were inspected at 5, 7, 10, and 12 days after exposure to ethylene.
Complete randomized design was used, with 4 treatments and 2 boxes per treatment. Clusters from each treatment were evaluated every two days after ethylene treatment.

Structure (SMILES): CC1=CC1 [Treatment 1-MCP, 1-methylcyclopropene]
- ripening (dipped for 5 minutes): did not ripen normally
- peel colour after 12 days (dipped for 5 minutes): remained green
- ripening (dipped for 20 minutes): did not ripen normally
- peel colour after 12 days (dipped for 20 minutes): remained green
- difference in ripening versus control bananas (dipped in and out quickly (zero time)): No significant difference
